Reference: ChEMBL document CHEMBL5465560, “Selectivity Literature for EUbOPEN Chemogenomic Library” (2024)

Key:
[1] = target: Mitogen-activated protein kinase 10 (Homo sapiens, UniProt P53779); assay: Selectivity interaction (Millipore kinase profiler) EUB0000124b MAPK10; settings: at 10 µM
[2] = target: Death-associated protein kinase 3 (Homo sapiens) (UniProt O43293); settings: at 10 µM
[3] = target: T1, Aurora kinase A (Homo sapiens) (UniProt O14965); assay: Selectivity interaction (ActivX KiNativ screen (kinase selectivity in THP-1 cell lysates)) EUB0000639a STK6; assay type: subcellular; settings: lysate, at 5 µM
T1 sequence (whole entry): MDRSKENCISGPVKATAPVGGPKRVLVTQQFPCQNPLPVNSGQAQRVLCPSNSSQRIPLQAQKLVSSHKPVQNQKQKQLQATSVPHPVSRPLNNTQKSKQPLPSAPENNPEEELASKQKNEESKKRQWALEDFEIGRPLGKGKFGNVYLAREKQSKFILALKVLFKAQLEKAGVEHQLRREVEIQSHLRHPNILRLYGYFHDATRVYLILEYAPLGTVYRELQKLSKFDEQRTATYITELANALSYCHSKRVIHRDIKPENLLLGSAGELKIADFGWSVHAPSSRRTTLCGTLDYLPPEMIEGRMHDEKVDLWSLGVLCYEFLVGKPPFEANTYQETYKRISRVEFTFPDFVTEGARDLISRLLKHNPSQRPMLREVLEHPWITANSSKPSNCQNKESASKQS

[4] = target: T2, Mitogen-activated protein kinase kinase kinase 5 (Homo sapiens) (UniProt Q99683); assay: Selectivity interaction (ActivX KiNativ screen (kinase selectivity in THP-1 cell lysates)) EUB0000639a MAP3K5; assay type: subcellular; settings: lysate, at 1 µM
T2 sequence (whole entry): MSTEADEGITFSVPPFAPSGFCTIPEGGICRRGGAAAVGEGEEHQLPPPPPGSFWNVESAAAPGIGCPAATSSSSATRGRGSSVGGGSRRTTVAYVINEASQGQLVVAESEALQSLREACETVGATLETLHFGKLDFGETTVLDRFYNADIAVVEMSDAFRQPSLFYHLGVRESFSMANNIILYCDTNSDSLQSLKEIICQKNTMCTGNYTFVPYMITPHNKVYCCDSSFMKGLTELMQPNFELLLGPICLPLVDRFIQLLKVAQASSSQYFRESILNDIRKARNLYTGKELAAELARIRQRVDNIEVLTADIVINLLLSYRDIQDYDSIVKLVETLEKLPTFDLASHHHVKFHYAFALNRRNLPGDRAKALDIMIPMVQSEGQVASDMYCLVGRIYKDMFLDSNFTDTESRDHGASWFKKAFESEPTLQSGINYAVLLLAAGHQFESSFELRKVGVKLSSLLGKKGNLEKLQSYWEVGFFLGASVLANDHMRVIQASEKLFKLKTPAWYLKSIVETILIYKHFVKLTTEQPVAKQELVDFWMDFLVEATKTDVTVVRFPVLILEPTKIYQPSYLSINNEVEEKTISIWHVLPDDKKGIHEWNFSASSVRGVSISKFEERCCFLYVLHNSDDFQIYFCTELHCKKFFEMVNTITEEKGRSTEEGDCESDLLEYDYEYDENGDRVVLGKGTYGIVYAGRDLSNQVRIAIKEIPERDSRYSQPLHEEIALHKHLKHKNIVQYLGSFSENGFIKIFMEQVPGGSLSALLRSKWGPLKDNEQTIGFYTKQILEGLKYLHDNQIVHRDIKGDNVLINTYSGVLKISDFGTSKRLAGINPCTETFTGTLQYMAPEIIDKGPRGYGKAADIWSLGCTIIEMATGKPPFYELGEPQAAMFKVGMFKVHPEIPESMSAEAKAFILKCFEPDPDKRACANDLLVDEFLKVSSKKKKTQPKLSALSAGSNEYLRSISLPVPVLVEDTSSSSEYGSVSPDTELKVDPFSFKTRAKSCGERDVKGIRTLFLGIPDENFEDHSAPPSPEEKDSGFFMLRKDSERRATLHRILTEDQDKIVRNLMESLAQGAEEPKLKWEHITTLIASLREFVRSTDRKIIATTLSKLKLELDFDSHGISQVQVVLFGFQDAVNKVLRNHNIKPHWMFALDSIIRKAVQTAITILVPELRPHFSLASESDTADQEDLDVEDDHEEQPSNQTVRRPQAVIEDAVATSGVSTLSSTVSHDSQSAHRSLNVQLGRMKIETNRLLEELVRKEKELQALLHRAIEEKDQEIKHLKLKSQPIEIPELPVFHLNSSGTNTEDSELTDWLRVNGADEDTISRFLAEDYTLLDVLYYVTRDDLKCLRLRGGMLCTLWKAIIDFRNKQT

[5] = target: T3, Serine/threonine-protein kinase Nek3 (Homo sapiens) (UniProt P51956); assay: Selectivity interaction (KinomeScan (DiscoverX)) EUB0000618a NEK3; settings: at 10 µM
T3 sequence (whole entry): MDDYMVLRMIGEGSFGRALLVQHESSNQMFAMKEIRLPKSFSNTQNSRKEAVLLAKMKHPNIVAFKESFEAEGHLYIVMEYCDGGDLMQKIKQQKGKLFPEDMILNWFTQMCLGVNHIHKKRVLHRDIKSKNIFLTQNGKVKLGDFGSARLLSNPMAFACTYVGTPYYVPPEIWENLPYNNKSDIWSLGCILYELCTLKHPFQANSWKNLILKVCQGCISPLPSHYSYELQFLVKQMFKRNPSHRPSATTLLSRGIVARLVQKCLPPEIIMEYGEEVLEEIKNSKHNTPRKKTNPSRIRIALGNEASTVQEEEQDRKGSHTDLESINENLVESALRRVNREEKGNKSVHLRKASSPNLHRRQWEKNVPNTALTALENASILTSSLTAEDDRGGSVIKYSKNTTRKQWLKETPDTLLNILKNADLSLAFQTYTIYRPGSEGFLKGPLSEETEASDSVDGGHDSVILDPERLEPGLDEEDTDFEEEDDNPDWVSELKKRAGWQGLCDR

[6] = target: 5'-AMP-activated protein kinase catalytic subunit alpha-1 (Homo sapiens, UniProt Q13131); settings: at 10 µM
5'-AMP-activated protein kinase catalytic subunit alpha-1, sequence (Q13131 whole entry, looked up): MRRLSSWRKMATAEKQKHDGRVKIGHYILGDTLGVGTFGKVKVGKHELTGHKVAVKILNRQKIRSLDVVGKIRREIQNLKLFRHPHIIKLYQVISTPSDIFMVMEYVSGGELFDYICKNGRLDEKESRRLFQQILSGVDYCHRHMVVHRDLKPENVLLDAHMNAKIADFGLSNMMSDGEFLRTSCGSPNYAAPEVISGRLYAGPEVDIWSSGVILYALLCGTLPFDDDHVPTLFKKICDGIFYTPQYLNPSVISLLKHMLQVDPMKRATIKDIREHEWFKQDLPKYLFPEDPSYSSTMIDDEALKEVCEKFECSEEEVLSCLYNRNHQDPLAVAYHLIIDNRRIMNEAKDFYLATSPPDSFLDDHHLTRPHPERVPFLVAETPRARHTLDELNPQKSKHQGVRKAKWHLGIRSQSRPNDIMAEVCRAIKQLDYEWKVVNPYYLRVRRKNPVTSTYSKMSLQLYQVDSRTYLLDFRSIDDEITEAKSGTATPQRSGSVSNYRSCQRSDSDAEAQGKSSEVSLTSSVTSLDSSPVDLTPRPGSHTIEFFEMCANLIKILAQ

[7] = target: RAF proto-oncogene serine/threonine-protein kinase (Homo sapiens) (UniProt P04049); assay: Selectivity interaction (KinomeScan (DiscoverX)) EUB0001619a RAF1; settings: at 1 µM
RAF proto-oncogene serine/threonine-protein kinase (Homo sapiens), sequence (P04049 whole entry): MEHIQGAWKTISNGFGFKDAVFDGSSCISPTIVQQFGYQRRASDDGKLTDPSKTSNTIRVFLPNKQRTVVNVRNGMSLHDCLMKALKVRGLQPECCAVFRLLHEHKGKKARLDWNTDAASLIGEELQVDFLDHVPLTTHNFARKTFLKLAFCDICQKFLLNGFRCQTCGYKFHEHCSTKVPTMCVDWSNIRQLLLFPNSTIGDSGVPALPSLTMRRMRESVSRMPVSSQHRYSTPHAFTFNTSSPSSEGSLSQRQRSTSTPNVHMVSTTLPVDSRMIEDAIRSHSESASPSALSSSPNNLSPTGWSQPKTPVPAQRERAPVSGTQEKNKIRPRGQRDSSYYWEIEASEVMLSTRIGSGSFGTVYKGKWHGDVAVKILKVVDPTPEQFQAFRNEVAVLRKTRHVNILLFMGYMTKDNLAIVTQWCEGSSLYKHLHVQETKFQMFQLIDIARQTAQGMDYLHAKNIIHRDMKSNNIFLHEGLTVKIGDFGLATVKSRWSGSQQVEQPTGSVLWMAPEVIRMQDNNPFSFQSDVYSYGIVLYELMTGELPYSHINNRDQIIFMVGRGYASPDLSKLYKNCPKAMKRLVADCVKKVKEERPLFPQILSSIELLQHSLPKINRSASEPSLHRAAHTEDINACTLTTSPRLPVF

[8] = target: Serine/threonine-protein kinase WNK1 (Homo sapiens) (UniProt Q9H4A3); assay: Selectivity interaction (ActivX KiNativ screen (ex vivo kinase selectivity in human PBMCs)) EUB0001619a WNK1; assay type: cell-based; settings: PBMC, at 1 µM
[9] = target: SRSF protein kinase 2 (Homo sapiens) (UniProt P78362); assay: Selectivity interaction (KinomeScan (DiscoverX)) EUB0000655a SRPK2; settings: at 10 µM
SRSF protein kinase 2 (Homo sapiens), sequence (P78362 whole entry, looked up): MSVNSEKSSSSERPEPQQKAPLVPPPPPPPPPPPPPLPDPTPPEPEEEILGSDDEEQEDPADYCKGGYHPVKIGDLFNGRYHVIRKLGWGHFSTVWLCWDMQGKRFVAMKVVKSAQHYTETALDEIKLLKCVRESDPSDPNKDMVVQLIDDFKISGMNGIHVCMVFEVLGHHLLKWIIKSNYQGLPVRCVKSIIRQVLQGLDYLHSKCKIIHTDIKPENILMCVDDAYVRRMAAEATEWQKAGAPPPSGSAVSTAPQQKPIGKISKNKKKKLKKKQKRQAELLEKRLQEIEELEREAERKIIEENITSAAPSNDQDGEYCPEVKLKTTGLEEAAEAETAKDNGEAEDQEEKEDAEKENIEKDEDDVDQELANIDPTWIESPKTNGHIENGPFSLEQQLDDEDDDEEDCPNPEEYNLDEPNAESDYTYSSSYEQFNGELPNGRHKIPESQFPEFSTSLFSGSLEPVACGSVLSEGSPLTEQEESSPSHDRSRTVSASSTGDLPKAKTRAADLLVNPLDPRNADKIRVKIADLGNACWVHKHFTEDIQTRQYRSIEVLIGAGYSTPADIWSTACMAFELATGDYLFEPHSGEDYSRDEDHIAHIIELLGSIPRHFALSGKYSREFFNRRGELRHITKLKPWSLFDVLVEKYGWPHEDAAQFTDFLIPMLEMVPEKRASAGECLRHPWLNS

[10] = target: Calcium/calmodulin-dependent protein kinase type II subunit beta (Homo sapiens) (UniProt Q13554); assay: Selectivity interaction (Kinase panel (Z-LYTE Assay)) EUB0001632a CAMK2B; settings: at 10 µM
Calcium/calmodulin-dependent protein kinase type II subunit beta (Homo sapiens), sequence (Q13554 whole entry): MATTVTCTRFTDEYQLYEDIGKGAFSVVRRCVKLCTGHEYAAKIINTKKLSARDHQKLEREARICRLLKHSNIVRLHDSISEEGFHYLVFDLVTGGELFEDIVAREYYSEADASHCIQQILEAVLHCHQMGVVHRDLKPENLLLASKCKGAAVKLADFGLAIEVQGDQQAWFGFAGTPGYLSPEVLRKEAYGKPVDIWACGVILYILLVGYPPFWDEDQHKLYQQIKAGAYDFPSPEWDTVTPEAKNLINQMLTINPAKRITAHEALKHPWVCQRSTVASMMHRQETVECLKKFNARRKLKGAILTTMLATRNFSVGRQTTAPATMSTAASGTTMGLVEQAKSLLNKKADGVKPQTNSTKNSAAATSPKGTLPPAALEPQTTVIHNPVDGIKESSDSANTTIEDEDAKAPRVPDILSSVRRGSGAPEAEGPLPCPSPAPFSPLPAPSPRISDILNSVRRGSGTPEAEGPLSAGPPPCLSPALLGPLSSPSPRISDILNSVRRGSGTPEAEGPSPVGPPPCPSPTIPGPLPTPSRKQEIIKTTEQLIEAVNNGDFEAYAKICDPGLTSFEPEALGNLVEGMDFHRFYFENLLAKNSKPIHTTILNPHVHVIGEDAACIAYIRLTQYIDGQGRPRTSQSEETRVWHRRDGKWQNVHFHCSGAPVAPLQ

Death-associated protein kinase 3 (Homo sapiens), sequence (O43293 whole entry, looked up): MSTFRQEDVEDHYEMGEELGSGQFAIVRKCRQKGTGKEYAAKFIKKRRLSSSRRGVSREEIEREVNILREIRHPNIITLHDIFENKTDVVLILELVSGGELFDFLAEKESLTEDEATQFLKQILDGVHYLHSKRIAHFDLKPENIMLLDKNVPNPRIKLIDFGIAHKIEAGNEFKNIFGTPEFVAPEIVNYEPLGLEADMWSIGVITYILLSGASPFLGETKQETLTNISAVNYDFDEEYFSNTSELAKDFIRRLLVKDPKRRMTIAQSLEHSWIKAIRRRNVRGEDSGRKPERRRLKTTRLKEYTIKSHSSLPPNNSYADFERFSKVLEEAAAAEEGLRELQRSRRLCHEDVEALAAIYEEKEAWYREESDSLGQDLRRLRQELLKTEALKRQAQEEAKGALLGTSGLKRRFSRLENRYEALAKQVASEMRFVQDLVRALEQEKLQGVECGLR
Mitogen-activated protein kinase 10, sequence (P53779 whole entry): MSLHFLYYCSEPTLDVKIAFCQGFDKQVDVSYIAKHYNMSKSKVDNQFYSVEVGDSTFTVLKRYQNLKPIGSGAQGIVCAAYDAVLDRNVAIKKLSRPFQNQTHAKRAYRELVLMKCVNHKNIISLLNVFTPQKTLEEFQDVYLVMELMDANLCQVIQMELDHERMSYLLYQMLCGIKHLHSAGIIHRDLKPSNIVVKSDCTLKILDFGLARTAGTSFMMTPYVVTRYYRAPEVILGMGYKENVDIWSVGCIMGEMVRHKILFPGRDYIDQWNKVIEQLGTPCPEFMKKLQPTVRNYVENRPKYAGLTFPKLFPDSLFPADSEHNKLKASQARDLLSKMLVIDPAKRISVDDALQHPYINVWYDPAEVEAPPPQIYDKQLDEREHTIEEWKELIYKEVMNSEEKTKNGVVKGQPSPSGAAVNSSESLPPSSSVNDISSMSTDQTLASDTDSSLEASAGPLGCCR

CC(=O)Nc1cccc(-n2c(=O)n(C3CC3)c(=O)c3c(Nc4ccc(I)cc4F)n(C)c(=O)c(C)c32)c1
% of control [1]: 76%

CCN(CC)CCCCNc1ncc2cc(-c3cc(OC)cc(OC)c3)c(NC(=O)NC(C)(C)C)nc2n1
% of control [2]: 100%

CC[C@@H]1[C@H](F)C(=O)N[C@@H]1COc1nccc2cc(C(N)=O)c(OC)cc12 [ZIMLOVISERTIB]
% of inhibition [3]: 57.8%
% of inhibition [4]: -29.6%

O[C@H]1CC[C@H](Nc2ncc3nc(Nc4c(F)cc(F)cc4F)n([C@H]4CCOC4)c3n2)CC1
% of control [5]: 100%

Cc1cc([C@@H](C)Nc2ccccc2C(=O)O)c2nc(N3CCOCC3)cc(=O)n2c1 [AZD-6482]
% of control [6]: 100%

N#Cc1cccc(-c2c[nH]c3ncnc(N4CCOCC4)c23)c1
% of control [7]: 71%
% of inhibition [8]: -1%

CN(C)CCOc1ccc(-c2nc(-c3ccncc3)c(-c3ccc4c(c3)CC/C4=N\O)[nH]2)cc1
% of control [9]: 100%

Cn1cc(-n2cnc3c(NCc4nc5cc(Cl)c(Cl)cc5[nH]4)nc(N4CCOCC4)nc32)cn1
% of control [10]: 1.33%
